The results in this text go back to publication PMC5218480 (PLoS ONE, 2017).

This test has as its system MV-4-11 cells. The test can be described thus: Gene expression microarray analysis (Affymetrix PrimeView) and GSEA. Type of test: cell-based, human. Also on record: RFU PODN (11730768_x_at) / Fold change /veh PODN (11730768_x_at) / RFU LINC00158 (11744669_a_at) / Fold change /veh LINC00158 (11744669_a_at) / RFU DUSP10 (11751237_a_at) / Fold change /veh DUSP10 (11751237_a_at) / RFU ID3 (11757404_x_at) / Fold change /veh ID3 (11757404_x_at) / RFU PLEKHG5 (11737974_s_at) / Fold change /veh PLEKHG5 (11737974_s_at) / RFU LRRC4B (11730491_at) / Fold change /veh LRRC4B (11730491_at) / RFU GIMAP4 (11747438_a_at) / Fold change /veh GIMAP4 (11747438_a_at) / RFU KRT8 (11758183_x_at) / Fold change /veh KRT8 (11758183_x_at) / RFU CNN1 (11734310_a_at) / Fold change /veh CNN1 (11734310_a_at) / RFU VPS37D (11726825_at) / Fold change /veh VPS37D (11726825_at) / RFU C10orf10 (11716522_x_at) / Fold change /veh C10orf10 (11716522_x_at) / RFU KIR2DL2 /// KIR2DL4 /// KIR2DL5A /// KIR2DL5B /// KIR2DS1 /// KIR2DS2 /// KIR2DS3 /// KIR2DS4 /// KIR3DL3 /// KIR3DL3 /// KIR3DS1 (11738374_at) / Fold change /veh KIR2DL2 /// KIR2DL4 /// KIR2DL5A /// KIR2DL5B /// KIR2DS1 /// KIR2DS2 /// KIR2DS3 /// KIR2DS4 /// KIR3DL3 /// KIR3DL3 /// KIR3DS1 (11738374_at) / RFU C1QL1 (11718748_at) / Fold change /veh C1QL1 (11718748_at) / RFU TMPRSS4 (11747572_a_at) / Fold change /veh TMPRSS4 (11747572_a_at) / RFU HAMP (11756126_x_at) / Fold change /veh HAMP (11756126_x_at) / RFU RNFT2 (11725882_a_at) / Fold change /veh RNFT2 (11725882_a_at) / RFU NR4A2 (11747474_a_at) / Fold change /veh NR4A2 (11747474_a_at) / RFU ABCC12 (11746883_a_at) / Fold change /veh ABCC12 (11746883_a_at) / RFU TMEM136 (11760407_x_at) / Fold change /veh TMEM136 (11760407_x_at) / RFU CLDN22 /// WWC2 (11732394_at) / Fold change /veh CLDN22 /// WWC2 (11732394_at) / RFU HLA-DPB1 (11760878_x_at) / Fold change /veh HLA-DPB1 (11760878_x_at) / RFU SPINT1 (11716480_a_at) / Fold change /veh SPINT1 (11716480_a_at) / RFU GAP43 (11754022_s_at) / Fold change /veh GAP43 (11754022_s_at) / RFU A4GNT (11735810_at) / Fold change /veh A4GNT (11735810_at) / RFU PRB3 (11715151_x_at) / Fold change /veh PRB3 (11715151_x_at) / RFU TUBB4B (11761932_at) / Fold change /veh TUBB4B (11761932_at) / RFU CAPN14 (11732068_a_at) / Fold change /veh CAPN14 (11732068_a_at) / RFU TMCC2 (11721928_a_at) / Fold change /veh TMCC2 (11721928_a_at) / RFU IRGQ (11745062_a_at) / Fold change /veh IRGQ (11745062_a_at) / RFU FAM174B (11720279_a_at) / Fold change /veh FAM174B (11720279_a_at) / RFU TMPRSS4 (11748680_a_at) / Fold change /veh TMPRSS4 (11748680_a_at) / RFU FAM212B (11763350_a_at) / Fold change /veh FAM212B (11763350_a_at) / RFU PLEKHG5 (11743358_a_at) / Fold change /veh PLEKHG5 (11743358_a_at) / RFU ZSCAN30 (11745921_a_at) / Fold change /veh ZSCAN30 (11745921_a_at) / RFU CMKLR1 (11741424_a_at) / Fold change /veh CMKLR1 (11741424_a_at) / RFU LOC101060620 /// MAPK8IP1 (11723275_at) / Fold change /veh LOC101060620 /// MAPK8IP1 (11723275_at) / RFU SPTSSB (11747773_x_at) / Fold change /veh SPTSSB (11747773_x_at) / RFU PRSS12 (11739890_at) / Fold change /veh PRSS12 (11739890_at) / RFU BIN1 (11741810_x_at) / Fold change /veh BIN1 (11741810_x_at) / RFU WNT11 (11732464_a_at) / Fold change /veh WNT11 (11732464_a_at) / RFU C10orf10 (11716521_a_at) / Fold change /veh C10orf10 (11716521_a_at) / RFU C5orf56 (11738089_at) / Fold change /veh C5orf56 (11738089_at) / RFU CYB561 (11721691_x_at) / Fold change /veh CYB561 (11721691_x_at) / RFU ANKRD19P (11752326_a_at) / Fold change /veh ANKRD19P (11752326_a_at) / RFU OR2T12 /// OR2T33 /// OR2T8 (11738714_s_at) / Fold change /veh OR2T12 /// OR2T33 /// OR2T8 (11738714_s_at) / RFU VCAN (11748164_a_at) / Fold change /veh VCAN (11748164_a_at) / RFU JSRP1 (11732532_at) / Fold change /veh JSRP1 (11732532_at) / RFU KRTAP10-11 (11738290_x_at) / Fold change /veh KRTAP10-11 (11738290_x_at) / RFU MYO3A (11730013_a_at) / Fold change /veh MYO3A (11730013_a_at) / RFU EBF3 (11725865_a_at) / Fold change /veh EBF3 (11725865_a_at) / RFU CAMK2N1 (11719241_x_at) / Fold change /veh CAMK2N1 (11719241_x_at) / RFU C5orf56 (11738088_a_at) / Fold change /veh C5orf56 (11738088_a_at) / RFU OLFML3 (11715873_a_at) / Fold change /veh OLFML3 (11715873_a_at) / RFU LOC100653217 /// NTM (11731650_a_at) / Fold change /veh LOC100653217 /// NTM (11731650_a_at) / RFU MAPK11 (11762145_a_at) / Fold change /veh MAPK11 (11762145_a_at) / RFU FIZ1 (11724087_x_at) / Fold change /veh FIZ1 (11724087_x_at) / RFU OASL (11726364_x_at) / Fold change /veh OASL (11726364_x_at) / RFU SOX15 (11748057_x_at) / Fold change /veh SOX15 (11748057_x_at) / RFU CD79A (11719716_a_at) / Fold change /veh CD79A (11719716_a_at) / RFU HIST1H1D (11736915_at) / Fold change /veh HIST1H1D (11736915_at) / RFU CASKIN2 (11723855_a_at) / Fold change /veh CASKIN2 (11723855_a_at) / RFU LOC730098 (11760151_x_at) / Fold change /veh LOC730098 (11760151_x_at) / RFU OR4N2 (11742367_at) / Fold change /veh OR4N2 (11742367_at) / RFU PRRT2 (11749266_a_at) / Fold change /veh PRRT2 (11749266_a_at) / RFU SNX32 (11753110_a_at) / Fold change /veh SNX32 (11753110_a_at) / RFU CDHR5 (11726645_a_at) / Fold change /veh CDHR5 (11726645_a_at) / RFU RCAN1 (11760418_a_at) / Fold change /veh RCAN1 (11760418_a_at) / RFU FAM167A (11723789_a_at) / Fold change /veh FAM167A (11723789_a_at) / RFU FAM26E (11764081_at) / Fold change /veh FAM26E (11764081_at) / RFU ISYNA1 (11749810_s_at) / Fold change /veh ISYNA1 (11749810_s_at) / RFU ACY1 (11761880_at) / Fold change /veh ACY1 (11761880_at) / RFU 11764098_at / Fold change /veh 11764098_at / RFU SAMD14 (11745864_x_at) / Fold change /veh SAMD14 (11745864_x_at) / RFU NPB (11741838_a_at) / Fold change /veh NPB (11741838_a_at) / RFU TMPRSS6 (11731388_a_at) / Fold change /veh TMPRSS6 (11731388_a_at) / RFU KRTAP10-2 (11738614_at) / Fold change /veh KRTAP10-2 (11738614_at) / RFU ARHGAP8 /// PRR5-ARHGAP8 (11727945_x_at) / Fold change /veh ARHGAP8 /// PRR5-ARHGAP8 (11727945_x_at) / RFU KRTAP5-7 /// NADSYN1 (11734609_at) / Fold change /veh KRTAP5-7 /// NADSYN1 (11734609_at) / RFU RASL12 (11751679_a_at) / Fold change /veh RASL12 (11751679_a_at) / RFU CDKN2B (11736163_a_at) / Fold change /veh CDKN2B (11736163_a_at) / RFU PRF1 (11729649_at) / Fold change /veh PRF1 (11729649_at) / RFU, ZNF638 /// ZNF638-IT1 / Fold change vs veh, ZNF638 /// ZNF638-IT1 / RFU, PANK3 / Fold change vs veh, PANK3 / RFU, SH3YL1 / Fold change vs veh, SH3YL1 / RFU, ZEB2 / Fold change vs veh, ZEB2 / RFU, NRIP1 / Fold change vs veh, NRIP1 / RFU, PTTG1IP / Fold change vs veh, PTTG1IP / RFU, CAPN2 / Fold change vs veh, CAPN2 / RFU, MED14 / Fold change vs veh, MED14 / RFU, SNORA58 / Fold change vs veh, SNORA58 / RFU, C1orf63 / Fold change vs veh, C1orf63 / RFU, LRRFIP1 / Fold change vs veh, LRRFIP1 / RFU, NDUFAF7 / Fold change vs veh, NDUFAF7 / RFU, SLC12A2 / Fold change vs veh, SLC12A2 / RFU, IBTK / Fold change vs veh, IBTK / RFU, ESF1 / Fold change vs veh, ESF1 / Fold change vs veh, TMEM50B / RFU, TAOK1 / Fold change vs veh, TAOK1 / RFU, ACBD3 / Fold change vs veh, ACBD3 / RFU, TMA16 / Fold change vs veh, TMA16 / RFU, RWDD3 / Fold change vs veh, RWDD3 / RFU, BCAT1 / Fold change vs veh, BCAT1 / RFU, EDEM3 / Fold change vs veh, EDEM3 / RFU, TMEM33 / Fold change vs veh, TMEM33 / RFU, WDR75 / Fold change vs veh, WDR75 / RFU, AHCTF1 / Fold change vs veh, AHCTF1 / RFU, TFRC / Fold change vs veh, TFRC / RFU, ZDHHC17 / Fold change vs veh, ZDHHC17 / RFU, NOM1 / Fold change vs veh, NOM1 / RFU, ARL8B / Fold change vs veh, ARL8B / RFU, ZBTB11 / Fold change vs veh, ZBTB11 / RFU, TAMM41 / Fold change vs veh, TAMM41 / RFU, KIAA1704 /// LOC100996395 / Fold change vs veh, KIAA1704 /// LOC100996395 / RFU, ING1 / Fold change vs veh, ING1 / RFU, TRMT61B / Fold change vs veh, TRMT61B / RFU, FUBP3 / Fold change vs veh, FUBP3 / RFU, TP53 / Fold change vs veh, TP53 / RFU, TNKS2 / Fold change vs veh, TNKS2 / RFU, ZFP14 / Fold change vs veh, ZFP14 / RFU, ACTR2 / Fold change vs veh, ACTR2 / RFU, PPP3R1 / Fold change vs veh, PPP3R1 / RFU, PIK3R1 / Fold change vs veh, PIK3R1 / RFU, HNRNPA1 / Fold change vs veh, HNRNPA1 / RFU, RNF170 / Fold change vs veh, RNF170 / RFU, ZNF28 / Fold change vs veh, ZNF28 / RFU, RNGTT / Fold change vs veh, RNGTT / RFU, OGT / Fold change vs veh, OGT / RFU, BRD1 / Fold change vs veh, BRD1 / RFU, MARS / Fold change vs veh, MARS / RFU, ZNF655 / Fold change vs veh, ZNF655 / RFU, FAHD1 / Fold change vs veh, FAHD1 / RFU, BDP1 / Fold change vs veh, BDP1 / RFU, LRRCC1 / Fold change vs veh, LRRCC1 / RFU, ARID1A / Fold change vs veh, ARID1A / RFU, ZNF146 / Fold change vs veh, ZNF146 / RFU, ZNF330 / Fold change vs veh, ZNF330 / RFU, GPN3 / Fold change vs veh, GPN3 / RFU, C9orf123 / Fold change vs veh, C9orf123 / RFU, N4BP2L2 / Fold change vs veh, N4BP2L2 / RFU, ARFIP1 / Fold change vs veh, ARFIP1 / RFU, FAM179B / Fold change vs veh, FAM179B / RFU, BCL10 / Fold change vs veh, BCL10 / RFU, UHRF1BP1L / Fold change vs veh, UHRF1BP1L / RFU, BET1 / Fold change vs veh, BET1 / RFU, CNOT2 / Fold change vs veh, CNOT2 / RFU, ZNF268 / Fold change vs veh, ZNF268 / Fold change vs veh, ZNF507 / RFU, DGCR2 / Fold change vs veh, DGCR2 / RFU, WDSUB1 / Fold change vs veh, WDSUB1 / Fold change vs veh, HSP90B1 /// MIR3652 / RFU, ADSS / Fold change vs veh, ADSS / RFU, GK / Fold change vs veh, GK / RFU, ZNF148 / Fold change vs veh, ZNF148 / RFU, TAF9 / Fold change vs veh, TAF9 / RFU, SLC1A5 / Fold change vs veh, SLC1A5 / RFU, SLMO2 / Fold change vs veh, SLMO2 / RFU, ABCC4 / Fold change vs veh, ABCC4 / RFU, LOC101060439 /// RAP1B / Fold change vs veh, LOC101060439 /// RAP1B / RFU, RFX7 / Fold change vs veh, RFX7 / RFU, GTPBP10 / Fold change vs veh, GTPBP10 / RFU, CNEP1R1 / Fold change vs veh, CNEP1R1 / RFU, BIVM-ERCC5 /// ERCC5 / Fold change vs veh, BIVM-ERCC5 /// ERCC5 / RFU, ILF3 / Fold change vs veh, ILF3 / RFU 11762660_at / Fold change /veh 11762660_at / RFU VCAN (11757783_s_at) / Fold change /veh VCAN (11757783_s_at) / RFU DDX43 (11728927_at) / Fold change /veh DDX43 (11728927_at) / RFU KRT8 (11758188_x_at) / Fold change /veh KRT8 (11758188_x_at) / RFU NKD1 (11759106_at) / Fold change /veh NKD1 (11759106_at) / RFU SRD5A1 (11742802_a_at) / Fold change /veh SRD5A1 (11742802_a_at) / RFU TPSAB1 /// TPSB2 (11721975_s_at) / Fold change /veh TPSAB1 /// TPSB2 (11721975_s_at) / RFU GSTM3 (11746129_a_at) / Fold change /veh GSTM3 (11746129_a_at) / RFU IL23R (11737362_x_at) / Fold change /veh IL23R (11737362_x_at) / RFU TMEM51 (11727254_a_at) / Fold change /veh TMEM51 (11727254_a_at) / RFU PIWIL2 (11732686_x_at) / Fold change /veh PIWIL2 (11732686_x_at) / RFU ORM1 (11744905_x_at) / Fold change /veh ORM1 (11744905_x_at) / RFU CCDC152 (11743942_at) / Fold change /veh CCDC152 (11743942_at) / RFU ECM1 (11717891_a_at) / Fold change /veh ECM1 (11717891_a_at) / RFU IL23R (11748794_a_at) / Fold change /veh IL23R (11748794_a_at) / RFU TNFAIP8L3 (11732012_x_at) / Fold change /veh TNFAIP8L3 (11732012_x_at) / RFU MBOAT4 (11741988_at) / Fold change /veh MBOAT4 (11741988_at) / RFU 11764193_at / Fold change /veh 11764193_at / RFU TMEM53 (11763286_at) / Fold change /veh TMEM53 (11763286_at) / RFU MAGEB2 (11727129_at) / Fold change /veh MAGEB2 (11727129_at) / RFU TMEM200A (11744735_a_at) / Fold change /veh TMEM200A (11744735_a_at) / RFU CCDC152 (11751479_a_at) / Fold change /veh CCDC152 (11751479_a_at) / RFU FAM211A (11726209_a_at) / Fold change /veh FAM211A (11726209_a_at) / RFU RGS16 (11746705_a_at) / Fold change /veh RGS16 (11746705_a_at) / RFU VCAN (11755009_s_at) / Fold change /veh VCAN (11755009_s_at) / RFU RHOB (11743442_s_at) / Fold change /veh RHOB (11743442_s_at) / RFU RGS16 (11720943_a_at) / Fold change /veh RGS16 (11720943_a_at) / RFU RGS16 (11720944_at) / Fold change /veh RGS16 (11720944_at) / RFU, VPS4B / Fold change vs veh, VPS4B / RFU, CREB1 / Fold change vs veh, CREB1 / RFU, DNAJC13 / Fold change vs veh, DNAJC13 / RFU, GNAQ / Fold change vs veh, GNAQ / RFU, CDK5R1 / Fold change vs veh, CDK5R1 / RFU, ZRANB3 / Fold change vs veh, ZRANB3 / RFU, CUL4A / Fold change vs veh, CUL4A / RFU, CCNY / Fold change vs veh, CCNY / RFU, UFL1 / Fold change vs veh, UFL1 / RFU, COG3 / Fold change vs veh, COG3 / RFU, DIAPH2 / Fold change vs veh, DIAPH2 / RFU, SKA2 / Fold change vs veh, SKA2 / RFU, AFF3 / Fold change vs veh, AFF3 / RFU, LMF1 / Fold change vs veh, LMF1 / RFU, IPO11 / Fold change vs veh, IPO11 / RFU, DFFB / Fold change vs veh, DFFB / RFU, FOXP1 / Fold change vs veh, FOXP1 / RFU, CARD8 / Fold change vs veh, CARD8 / RFU, STRN3 / Fold change vs veh, STRN3 / RFU, ADK / Fold change vs veh, ADK / RFU, RASSF2 / Fold change vs veh, RASSF2 / RFU, WIPF1 / Fold change vs veh, WIPF1 / RFU, LARP1B / Fold change vs veh, LARP1B / RFU, RASA1 / Fold change vs veh, RASA1 / RFU, RB1 / Fold change vs veh, RB1 / RFU, PPFIA1 / Fold change vs veh, PPFIA1 / RFU, MAT2A / Fold change vs veh, MAT2A / RFU, CCT5 / Fold change vs veh, CCT5 / RFU, WDR92 / Fold change vs veh, WDR92 / RFU, CUX1 / Fold change vs veh, CUX1 / RFU, TTC7A / Fold change vs veh, TTC7A / RFU, TMEM135 / Fold change vs veh, TMEM135 / RFU, DEPTOR / Fold change vs veh, DEPTOR / RFU, CPM / Fold change vs veh, CPM / RFU, DNAJB6 / Fold change vs veh, DNAJB6 / RFU, CACNA2D3 / Fold change vs veh, CACNA2D3 / RFU, DTX4 / Fold change vs veh, DTX4 / RFU, TFCP2 / Fold change vs veh, TFCP2 / RFU, GMCL1 /// GMCL1P1 / Fold change vs veh, GMCL1 /// GMCL1P1 / RFU, AEBP2 / Fold change vs veh, AEBP2 / RFU, SNHG1 /// SNORD22 /// SNORD25 /// SNORD26 /// SNORD27 /// SNORD28 /// SNORD29 /// SNORD31 / Fold change vs veh, SNHG1 /// SNORD22 /// SNORD25 /// SNORD26 /// SNORD27 /// SNORD28 /// SNORD29 /// SNORD31 / Fold change (Aza/veh), C12orf56 (ProbeSet 11735607_a_at) / Fold change (ACY-1035/veh), C12orf56 (ProbeSet 11735607_a_at) / Fold change (Aza/veh), FGFR1OP (ProbeSet 11751329_s_at) / Fold change (ACY-1035/veh), FGFR1OP (ProbeSet 11751329_s_at) / Fold change (Aza/veh), VPS36 (ProbeSet 11739960_a_at) / Fold change (ACY-1035/veh), VPS36 (ProbeSet 11739960_a_at) / RFU SYPL1 (11715823_x_at) / Fold change /veh SYPL1 (11715823_x_at) / RFU IGFBP7 (11715501_s_at) / Fold change /veh IGFBP7 (11715501_s_at) / RFU REEP3 (11722064_at) / Fold change /veh REEP3 (11722064_at) / RFU IGLL1 (11728026_x_at) / Fold change /veh IGLL1 (11728026_x_at): dose or concentration left out as unconfirmed. The following applies: ProbeSet 11757268_x_at; LIST B.

Take `Nc1ccc(-c2cccs2)cc1NC(=O)c1ccc2c(c1)cc(C1CC1)n2CCN1CCOCC1` [ACY-1035]: the “RFU, HNRNPA1” value came to 4786.54 RFU.
